Source: patent US5889026A, “4-hydroxy-piperodine derivatives” (Hoffmann-La Roche Inc., priority 1996, dated 1999)
Structures can show the parent of a compound that is named as a salt. Where two headings read alike, the source gives them in different places.

Columns and labels:
[1] = target: T1, 3H-Ro 25-6981 binding (NMDA receptor) (Rattus norvegicus, UniProt P35439+Q00960); test: 3H-Ro 25-6981 binding; conditions: rat brain membranes (minus cerebellum and medulla oblongata); 5 nM 3H-Ro 25-6981; 2 hours at 4° C., pH 7.4
T1 construct: NR1 splice forms mixed

[2] = target: 3H-Prazosine binding; test: 3H-Prazosine binding; conditions: rat brain membranes (minus cerebellum and medulla oblongata); 0.2 nM 3H-Prazosine; 30 minutes at room temperature, pH 7.4
Method: 3H-Prazosine binding Male Fullinsdorf albino rats weighing between 150-200 g were used. Membranes were prepared by homogenization of the whole brain minus cerebellum and medulla oblongata with a Plytron (10.000 rpm, 30 seconds), in 25 volumes of a cold Tris-HCl 50 mM, EDTA 10 mM, pH 7.1 buffer. The homogenate was centrifuged at 48.000 g for 10 minutes at 4° C. The pellet was resuspended using the Polytron in the same volume of buffer and the homogenate was incubated at 37° C. for 10 minutes. After centrifugation, the pellet was homogenized in the same buffer and frozen at -80° C. for at least 16 hours but not more than 10 days. For the binding assay the homogenate was thawed at 37° C., centrifuged and the pellet was washed three times as above in a Tris-HCl 5 mM, pH 7.4 cold buffer. The final pellet was resuspended in the same buffer and used at a final concentration of […]. 3H-Prazosine binding experiments were performed using a Tris-HCl 50 mM, pH 7.4 buffer. For displacement experiments 0.2 nM of 3H-Prazosine were used and non specific binding was measured using […] of Chlorpromazine. The incubation time was 30 minutes at room temperature and the assay was stopped by filtration on Whatman GF/B glass fiber filters (Unifilter-96, Canberra Packard S. A., Zurich, Switzerland). The filters were washed 5 times with cold buffer. The radioactivity on the filter was counted on a Packard Top-count microplate scintillation counter after addition of […] of microscint 40 (Canberra Packard S. A., Zurich, Switzerland). The effects of compounds were measured using a minimum of 8 concentrations and repeated at least once. The pooled normalized values were analyzed using a non-linear regression calculation program which provide IC50 with their relative upper and lower 95% confidence limits (RS1, BBN, USA).

[3] = target: T2, NR1C + NR2A (NMDAR1C-NMDAR2A) (Rattus norvegicus, UniProt Q00959); test: Electrophysiology on recombinant NMDA receptors, NR1C + NR2A, Xenopus laevis oocytes; type: cell-based; conditions: read-out: Electrophysiology, % block by 10 μM, NR1C + NR2A
T2 construct: expressed in transfected cells; host or cells: Xenopus laevis oocytes injected with mRNA (1:1 mixture)
Method: (§1) Oocytes of South African frogs (Xenopus laevis) were used for expressing either a combination of the NMDAR1C and NMDAR2A subunits or the NMDAR1C and NMDAR2B subunits. Approximately 3 fmol of a 1:1 mixture of the respective MRNA species were injected into every oocyte. Four to five days later, the ion current through the NMDA receptor channels was measured in voltage clamp experiments (see Methfessel et al., 1986, Pflugers Arch. 407:577 for the methods of oocyte expression and voltage-clamping). The membrane potential was clamped to -80 mV and the receptors were activated by applying a modified Ringer,s solution containing the NMDA-receptor agonists L-asparatate (Asp) and glycine (Gly). Different agonist concentrations were chosen for either subunit combination to account for the different agonist sensitivities of the two types of receptors (70 mM Asp plus 2.5 mM Gly for NMDAR1C-NMDAR2A and 15 mM Asp plus 0.2 mM Gly for NMDAR1C-NMDAR2B). The agonists were applied for 15 s intervals once every 2.5 min by rapid superfusion of the oocyte with agonist containing solution and the amplitude of the agonist-evoked current was measured immediately before the end of each application. After a series of initial control applications, the antagonist to be tested was added to both, the basal Ringer,s and the agonist containing solution. The antagonist concentration applied to oocytes expressing the NR2A subunit was 10 mmol/l, whereas 0.1 mmol/l were applied to the NR2B expressing oocytes. Four to eight oocytes were tested for every compound and NMDA receptor subtype. Oocytes were exposed to the compounds for 5 to 30 min depending on the time needed for reaching an equilibrium block of the NMDA receptor current. For every oocyte the decrease of the current amplitude was expressed as a percentage of the control current measured before application of the compound.

[4] = target: T3, NR1C + NR2B (NMDAR1C-NMDAR2B) (Rattus norvegicus, UniProt P35439+Q00960); test: Electrophysiology on recombinant NMDA receptors, NR1C + NR2B, Xenopus laevis oocytes; type: cell-based; conditions: read-out: Electrophysiology, % block by 0.1 μM, NR1C + NR2B
T3 construct: expressed in transfected cells; host or cells: Xenopus laevis oocytes injected with mRNA (1:1 mixture)
Method: as §1

[5] = 10 μM compound, Xenopus laevis oocytes, -80 mV, mean of four to eight oocytes
[6] = 0.1 μM compound, Xenopus laevis oocytes, -80 mV, mean of four to eight oocytes

T3 sequence (Q00960 27-1482, other chains not shown): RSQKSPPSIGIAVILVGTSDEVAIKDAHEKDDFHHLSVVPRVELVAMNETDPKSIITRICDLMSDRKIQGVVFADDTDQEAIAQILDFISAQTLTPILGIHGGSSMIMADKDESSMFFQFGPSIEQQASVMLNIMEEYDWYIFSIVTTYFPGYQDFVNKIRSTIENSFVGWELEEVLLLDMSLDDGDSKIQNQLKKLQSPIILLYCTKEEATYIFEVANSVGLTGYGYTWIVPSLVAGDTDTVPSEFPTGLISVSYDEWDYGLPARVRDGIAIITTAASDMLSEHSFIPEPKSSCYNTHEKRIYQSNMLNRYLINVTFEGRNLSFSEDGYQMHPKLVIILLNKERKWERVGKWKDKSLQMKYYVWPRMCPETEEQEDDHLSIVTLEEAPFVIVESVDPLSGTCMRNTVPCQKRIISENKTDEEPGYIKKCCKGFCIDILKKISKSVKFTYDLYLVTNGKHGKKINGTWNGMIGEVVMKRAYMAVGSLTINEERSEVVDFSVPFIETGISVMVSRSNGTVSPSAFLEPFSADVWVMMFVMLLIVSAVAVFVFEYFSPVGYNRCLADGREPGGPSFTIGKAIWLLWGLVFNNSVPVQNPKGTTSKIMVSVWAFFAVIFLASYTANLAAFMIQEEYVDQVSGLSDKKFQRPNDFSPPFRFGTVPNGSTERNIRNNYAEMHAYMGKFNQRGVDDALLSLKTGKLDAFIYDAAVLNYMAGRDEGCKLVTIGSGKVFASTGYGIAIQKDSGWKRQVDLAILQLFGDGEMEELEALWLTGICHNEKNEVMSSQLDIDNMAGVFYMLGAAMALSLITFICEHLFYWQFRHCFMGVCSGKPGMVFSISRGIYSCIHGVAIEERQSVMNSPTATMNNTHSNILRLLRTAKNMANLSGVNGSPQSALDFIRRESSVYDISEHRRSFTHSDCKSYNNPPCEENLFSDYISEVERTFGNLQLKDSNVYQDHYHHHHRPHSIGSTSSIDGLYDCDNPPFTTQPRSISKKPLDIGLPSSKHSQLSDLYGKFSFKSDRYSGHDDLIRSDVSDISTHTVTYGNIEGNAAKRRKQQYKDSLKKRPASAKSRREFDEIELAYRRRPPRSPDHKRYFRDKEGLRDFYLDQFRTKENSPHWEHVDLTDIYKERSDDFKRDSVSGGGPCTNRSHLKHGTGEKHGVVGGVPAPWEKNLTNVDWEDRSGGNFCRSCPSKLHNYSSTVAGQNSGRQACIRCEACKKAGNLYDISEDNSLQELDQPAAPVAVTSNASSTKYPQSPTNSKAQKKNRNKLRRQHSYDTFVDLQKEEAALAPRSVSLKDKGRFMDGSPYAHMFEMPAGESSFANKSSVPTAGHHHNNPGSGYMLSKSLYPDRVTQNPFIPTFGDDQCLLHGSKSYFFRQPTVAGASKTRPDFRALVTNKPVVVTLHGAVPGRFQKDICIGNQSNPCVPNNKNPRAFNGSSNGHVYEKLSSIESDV
T1 sequence (Q00960 27-1482, other chains not shown): as above
T2 sequence (Q00959 23-1464, other chains not shown): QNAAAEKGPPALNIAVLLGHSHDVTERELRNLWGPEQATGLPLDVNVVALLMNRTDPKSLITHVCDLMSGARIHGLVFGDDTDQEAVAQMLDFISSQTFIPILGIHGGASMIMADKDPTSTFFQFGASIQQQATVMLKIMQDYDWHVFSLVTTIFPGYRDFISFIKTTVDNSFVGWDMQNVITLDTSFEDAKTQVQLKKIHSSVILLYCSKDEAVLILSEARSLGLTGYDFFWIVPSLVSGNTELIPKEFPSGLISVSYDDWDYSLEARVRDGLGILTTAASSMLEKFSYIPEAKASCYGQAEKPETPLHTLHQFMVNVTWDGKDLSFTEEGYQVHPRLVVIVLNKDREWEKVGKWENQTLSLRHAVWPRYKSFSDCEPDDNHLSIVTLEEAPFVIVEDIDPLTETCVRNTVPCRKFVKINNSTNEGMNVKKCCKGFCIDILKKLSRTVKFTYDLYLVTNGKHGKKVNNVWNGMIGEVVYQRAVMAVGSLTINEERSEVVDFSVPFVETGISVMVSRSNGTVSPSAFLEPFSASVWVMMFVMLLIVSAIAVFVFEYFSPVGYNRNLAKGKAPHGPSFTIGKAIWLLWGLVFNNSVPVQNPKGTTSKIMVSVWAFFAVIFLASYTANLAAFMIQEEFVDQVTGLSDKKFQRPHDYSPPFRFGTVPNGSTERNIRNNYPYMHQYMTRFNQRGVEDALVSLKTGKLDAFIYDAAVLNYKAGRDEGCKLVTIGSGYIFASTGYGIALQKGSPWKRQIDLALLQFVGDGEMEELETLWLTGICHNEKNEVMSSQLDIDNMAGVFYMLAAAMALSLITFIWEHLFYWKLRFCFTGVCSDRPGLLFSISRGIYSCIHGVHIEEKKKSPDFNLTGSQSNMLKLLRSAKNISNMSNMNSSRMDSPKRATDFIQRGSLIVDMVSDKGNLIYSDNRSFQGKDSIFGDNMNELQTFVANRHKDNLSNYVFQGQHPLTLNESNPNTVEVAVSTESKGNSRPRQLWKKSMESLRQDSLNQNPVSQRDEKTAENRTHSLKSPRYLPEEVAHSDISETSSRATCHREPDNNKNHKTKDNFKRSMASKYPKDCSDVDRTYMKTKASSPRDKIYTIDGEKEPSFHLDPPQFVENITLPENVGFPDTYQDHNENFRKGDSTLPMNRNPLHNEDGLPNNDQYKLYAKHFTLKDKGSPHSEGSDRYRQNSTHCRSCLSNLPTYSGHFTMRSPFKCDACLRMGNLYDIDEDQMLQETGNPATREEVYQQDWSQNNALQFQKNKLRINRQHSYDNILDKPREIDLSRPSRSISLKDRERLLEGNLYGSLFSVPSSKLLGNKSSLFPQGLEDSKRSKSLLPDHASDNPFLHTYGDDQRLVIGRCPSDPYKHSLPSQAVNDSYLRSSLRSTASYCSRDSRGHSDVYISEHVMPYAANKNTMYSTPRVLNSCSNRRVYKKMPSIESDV

SMILES: Cc1ccc(CC2(O)CCN(CCCNC(=O)c3ccc(O)cc3)CC2)cc1 [T/39, 4-Hydroxy-N-[3-[4-hydroxy-4-(4-methyl-benzyl)-piperidin-1-yl]-propyl]-benzamide]
- IC50 [1]: 9 nM
- IC50 [2]: 2300 nM

SMILES: CS(=O)(=O)Nc1ccc(OCCCN2CCC(O)(Cc3ccc(F)cc3)CC2)cc1 [H/14, N-(4-{3-[4-(4-Fluoro-benzyl)-4-hydroxy-piperidin-1-yl]-propoxy}-phenyl)-methanesulfonamide]
- IC50 [1]: 40 nM
- IC50 [2]: 1800 nM

SMILES: Cc1ccc(CC2(O)CCN(CCOc3ccc(O)cc3)CC2)cc1 [C/9, 1-[2-(4-Hydroxy-phenoxy)-ethyl]-4-(4-methyl-benzyl)-piperidin-4-ol]
- inhibition at 10 µM [3, 5]: 31%
- inhibition at 0.1 µM [4, 6]: 88%
- IC50 [2]: 3500 nM

SMILES: Cc1ccc(CC2(O)CCN(C/C=C/c3ccc(O)cc3)CC2)cc1 [V/41, (E)-1-[3-(4-Hydroxy-phenyl)-allyl]-4-(4-methyl-benzyl)-piperidin-4-ol]
- IC50 [1]: 8 nM
- IC50 [2]: 3000 nM

SMILES: Cc1ccc(CC2(O)CCN(C(C)COc3ccc(O)cc3)CC2)cc1 (stereo not drawn) [I/22, 1-[2-(4-Hydroxy-phenoxy)-1-methyl-ethyl]-4-(4-methyl-benzyl)-piperidin-4-ol]
- IC50 [1]: 40 nM
- IC50 [2]: 2500 nM

SMILES: Cc1ccc(CC2(O)CCN(CC(=O)Nc3ccc(O)cc3)CC2)cc1 [K/24, 2-[4-Hydroxy-4-(4-methyl-benzyl)-piperidin-1-yl]-N-(4-hydroxy-phenyl)-acetamide]
- inhibition at 10 µM [3, 5]: 10%
- inhibition at 0.1 µM [4, 6]: 83%
- IC50 [1]: 40 nM
- IC50 [2]: 30000 nM

SMILES: O=C(NCCN1CCC(O)(Cc2ccccc2)CC1)c1ccc(O)cc1 [Q/36, N-[2-(4-Benzyl-4-hydroxy-piperidin-1-yl)-ethyl]-4-hydroxy-benzamide]
- IC50 [1]: 10 nM
- IC50 [2]: 5000 nM

SMILES: CS(=O)(=O)Nc1ccc(OCCN2CCC(O)(Cc3ccc(F)cc3)CC2)cc1 [F/12, N-(4-{2-[4-(4-fluoro-benzyl)-4-hydroxy-piperidin-1-yl]-ethoxy}-phenyl)-methanesulfonamide]
- IC50 [1]: 60 nM
- IC50 [2]: 6000 nM

SMILES: CS(=O)(=O)Nc1ccc(OCCN2CCC(O)(Cc3ccc(Cl)cc3)CC2)cc1 [G/13, N-(4-{2-[4-(4-Chloro-benzyl)-4-hydroxy-piperidin-1-yl]-ethoxy}-phenyl)-methanesulfonamide]
- IC50 [1]: 30 nM
- IC50 [2]: 9000 nM

SMILES: Cc1ccc(CC2(O)CCN(CCCOC(=O)c3ccc(O)cc3)CC2)cc1 [P/35, 4-Hydroxy-benzoic acid 3-[4-hydroxy-4-(4-methyl-benzyl)-piperidin-1-yl]-propylester]
- IC50 [1]: 3 nM
- IC50 [2]: 260 nM

SMILES: Oc1ccc(OC[C@@H](O)CN2CCC(O)(Cc3ccccc3)CC2)cc1 [B/5, (S)-4-Benzyl-1-[2-hydroxy-3-(4-hydroxy-phenoxy)-propyl]-piperidin-4-ol]
- IC50 [1]: 60 nM
- IC50 [2]: 4000 nM

SMILES: Oc1ccc(CC(O)CN2CCC(O)(Cc3ccc(Cl)cc3)CC2)cc1 (racemic) [N/32, (RS)-4-(4-Chloro-benzyl)-1-[2-hydroxy-3-(4-hydroxy-phenyl)-propyl]-piperidin-4-ol]
- inhibition at 10 µM [3, 5]: 19%
- inhibition at 0.1 µM [4, 6]: 81%
- IC50 [1]: 40 nM
- IC50 [2]: 9200 nM

SMILES: Oc1ccc(CC(O)CN2CCC(O)(Cc3ccccc3)CC2)cc1 (racemic) [L/30, (RS)-4-Benzyl-1-[2-hydroxy-3-(4-hydroxy-phenyl)-propyl]-piperidin-4-ol]
- IC50 [1]: 60 nM
- IC50 [2]: 7400 nM

SMILES: Cc1ccc(CC2(O)CCN(CCOc3ccc(NS(C)(=O)=O)cc3)CC2)cc1 [E/11, N-(4-{2-[4-hydroxy-4-(4-methyl-benzyl)-piperidin-1-yl]-ethoxy}-phenyl)-methanesulfonamide hydrochloride]
- inhibition at 10 µM [3]: 27%
- inhibition at 0.1 µM [4]: 91%
- IC50 [1]: 30 nM
- IC50 [2]: 5000 nM

SMILES: O=C(CN1CCC(O)(Cc2ccccc2)CC1)Nc1ccc(O)cc1 [J/23, 2-(4-Benzyl-4-hydroxy-piperidin-1-yl)-N-(4-hydroxy-phenyl)-acetamide]
- IC50 [1]: 70 nM
- IC50 [2]: 20000 nM

SMILES: Cc1ccc(CC2(O)CCN(CC(O)COc3ccc(O)cc3)CC2)cc1 (racemic) [A/1, (RS)-1-[2-Hydroxy-3-(4-hydroxy-phenoxy)-propyl]-4-(4-methyl-benzyl)-piperidin-4-ol hydrochloride]
- inhibition at 10 µM [3]: 29%
- inhibition at 0.1 µM [4]: 96%
- IC50 [1]: 15 nM
- IC50 [2]: 1500 nM

SMILES: Oc1ccc(OCCN2CCC(O)(Cc3ccc(F)cc3)CC2)cc1 [D/10, 4-(4-Fluoro-benzyl)-1-[2-(4-hydroxy-phenoxy)-ethyl]-piperidin-4-ol]
- IC50 [1]: 40 nM
- IC50 [2]: 3000 nM

SMILES: Cc1ccc(CC2(O)CCN(CC(O)Cc3ccc(O)c(F)c3)CC2)cc1 (racemic) [W/94, (RS)-1-[3-(3-Fluoro-4-hydroxy-phenyl)-2-hydroxy-propyl]-4-(4-methyl-benzyl)-piperidin-4-ol hydrochloride]
- IC50 [1]: 20 nM
- IC50 [2]: 6600 nM

SMILES: Cc1ccc(CC2(O)CCN(CC(O)Cc3ccc(O)cc3)CC2)cc1 (racemic) [M/31, (RS)-1-[2-Hydroxy-3-(4-hydroxy-phenyl)-propyl]-4-(4-methyl-benzyl)-piperidin-4-ol]
- inhibition at 10 µM [3, 5]: 10%
- inhibition at 0.1 µM [4, 6]: 89%
- IC50 [1]: 20 nM
- IC50 [2]: 9700 nM

SMILES: Cc1ccc(CC2(O)CCN(CCOC(=O)c3ccc(O)cc3)CC2)cc1 [O/34, 4-Hydroxy-benzoic acid 2-[4-hydroxy-4-(4-methyl-benzyl)-piperidin-1-yl]ethylester]
- IC50 [1]: 10 nM
- IC50 [2]: 800 nM

SMILES: Cc1ccc(CC2(O)CCN(CCNC(=O)c3ccc(O)cc3)CC2)cc1 [R/37, 4-Hydroxy-N-[2-[4-hydroxy-4-(4-methyl-benzyl)-piperidin-1-yl]-ethyl]-benzamide]
- inhibition at 10 µM [3, 5]: 8%
- inhibition at 0.1 µM [4, 6]: 42%
- IC50 [1]: 6 nM
- IC50 [2]: 5300 nM

SMILES: O=C(NCCCN1CCC(O)(Cc2ccccc2)CC1)c1ccc(O)cc1 [S/38, N-[3-(4-Benzyl-4-hydroxy-piperidin-1-yl)-propyl]-4-hydroxy-benzamide]
- IC50 [1]: 16 nM
- IC50 [2]: 7300 nM
